From the METLIN SMRT retention time set (Domingo-Almenara et al. 2019)

Assay: gradient 5% acetonitrile 3 min, to 50% in 2 min, to 85% in 15 min, held 3 min, 100 µL/min
Details: column: Zorbax Extend-C18 2.1 x 50 mm; eluents: water / acetonitrile, 0.1% formic acid
Method in brief: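 Data were gathered over 3 months by HPLC coupled to a quadrupole time-of-flight mass spectrometer, operated in positive and negative ionization mode. Mixtures of ~100 pure standards ran on a Zorbax Extend-C18 column (2.1 × 50 mm, 1.8 μm) at 100 μL/min, with water and acetonitrile each containing 0.1% formic acid and dead and dwell volumes of 40 μL and 900 μL. Retention time was read from adduct peaks picked by computer and checked manually.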

SMILES	RP-LC retention time [s]
CCn1ccc2sc(C)c(C(=O)NCC3CCCCC3)c2c1=O	884
Cc1oc2ccn(Cc3ccc(F)cc3)c(=O)c2c1C(=O)NCc1cccs1	1030
O=C(NCC1(N2CCOCC2)CCOC1)Nc1ccc2c(c1)OCCO2 (stereo unspecified)	589
CC(=O)c1cccc(NC(=O)N2CCN(c3cnn4c(C)nnc4c3)CC2)c1	600
CCOC(=O)c1cn(CC)c2cc(N3CCCC3)c(F)cc2c1=O	822
CC(C)c1noc(-c2cccnc2N2CCCN(Cc3cccc(F)c3)CC2)n1	708
c1ccc2c(c1)c(-c1noc(-c3ccncc3)n1)nn2CCN1CCCCC1	642
NC(=NC1C2CC3CC(C2)CC1C3)Nc1ccc(I)cc1 (stereo unspecified)	887
COCCN1CCC2(CC1)CN(Cc1ccc(OC)c(C)c1)Cc1ccccc1O2	598
COc1ccc(OC)c(COCC(O)CN2CCN(Cc3ccccc3)CC2)c1 (stereo unspecified)	557
COc1ccc(NS(=O)(=O)c2c(C)sc(C)c2-c2cc(C(F)(F)F)on2)cc1Cl	1180
CCCCN1CCN(C(=O)c2cn(-c3cc(N4CCC(C)CC4)ncn3)cn2)CC1	690
COc1cc2nc(C(=O)N3CCCCC3)cc(Nc3cccc(SC)c3)c2cc1OC	723
CCN(CC)S(=O)(=O)c1ccc2c(c1)CC(C(=O)N1CCC(C)CC1)N2C(C)=O (stereo unspecified)	849
Cc1c(-c2noc(C(=O)NCCN3CCC(C)CC3)n2)oc2ccccc12	706
Cc1ccc2c(Nc3ccc(CC(=O)O)cc3)c(C(=O)N3CCCCC3C)cnc2n1 (stereo unspecified)	580
O=C(NCCN1CCN(c2ccccc2F)CC1)C1CCCN(c2nc3cccnc3s2)C1 (stereo unspecified)	632
COc1cccc(CN2CCc3nc(N4CCN(c5ccccc5)CC4)ncc3C2)c1OC	762
CCC(CO)Nc1nc2ccc(Cl)cc2c2ccccc12 (stereo unspecified)	732
O=C(CCc1c(-c2ccccc2)nc2ccccn12)Nc1ccc(Br)cc1F	722

SMILES	RP-LC retention time [s]
CCOC(=O)c1c(C)oc2ncnc(Nc3ccc4c(c3)OCCO4)c12	1120
Cc1nn(CC(=O)NCCC(C)C)c(=O)c2c(-n3cccc3)n(-c3ccc(Cl)cc3)nc12	1030
Cc1ccccc1OCc1ccc(-c2nc(C#N)c(NCCCN(C)C)o2)o1	727
CNC(=O)C1CN(C(=O)c2ccccc2C(F)(F)F)CC12CCCC2 (stereo unspecified)	609
Cc1ccc(C)c(CN2CCn3c(nn(CC4CC4)c3=O)C2)c1	879
O=C(CCc1nnn2c1CN(C(=O)Cc1c[nH]c3ccccc13)CC2)N1CCCC1	641
CC(C)CNc1ccc2nncn2n1	644
O=C(Nc1c(-c2cccc(F)c2)nc2sc(N3CCCCC3)nn12)C1CC1	897
CCOc1ccc(-n2nc(CO)c(C(=O)NC)n2)cc1	763
O=C(C1CCC1)N1CCCC1c1nc(C2CCOCC2)no1 (stereo unspecified)	624
COc1ccc(CNC(=O)Cn2nc(C(=O)N3CCCC3)c3ccccc32)cc1	773
Cc1ccc(N2C(=O)CN(CCc3cccs3)[C@H]3CS(=O)(=O)C[C@H]32)cc1C	865
COc1cccc(-c2ccnc3nc(Cc4cc(F)cc(F)c4)nn23)c1	945
CCOc1ccc(C2Cn3nnc(-c4nc(-c5ccccc5OC)no4)c3CO2)cc1 (stereo unspecified)	1090
Cc1ccc(S(=O)(=O)N2CC(F)(F)C[C@H]2CN2CCc3ccccc3C2)cc1	766
COc1ccccc1NC(=O)Cn1c(=O)n(-c2ccccc2)c(=O)c2c1cc(C)n2C	971
CSc1ncccc1C(=O)Nc1ccc(CC(=O)NC(C)(C)CO)cc1	633
CCc1ccccc1NC(=O)N1CC(n2cc(COCC3CC3)nn2)C1	725
CCNC(=O)C1CCCN(c2nc3ncn(CC(=O)Nc4cccc(Cl)c4)c(=O)c3s2)C1 (stereo unspecified)	701

Results, then the compound that gave them:

RP-LC retention time [s]	SMILES
784	CCOc1ccc(NC(=O)C2CCN(S(=O)(=O)c3cn(CC)cn3)CC2)cc1
769	CCN1c2ccccc2C(=O)NC12CCN(C(=O)NCc1ccc(F)cc1)CC2
959	CN1C(=O)c2cc(S(=O)(=O)NCc3ccccc3)ccc2Oc2cccnc21
649	CCOC(=O)c1csc(NC(=O)C2CCCN2S(C)(=O)=O)n1 (stereo unspecified)
764	CCN1C(=O)c2c(C(=O)NCc3ccc(F)cc3)ncn2CC1(C)C(=O)NC1CCCC1 (stereo unspecified)
1030	CCCN1C(=O)COc2ccc(-c3csc(NC(=O)c4ccccc4Cl)n3)cc21
677	COc1ccc(NC(=O)C2CCN(c3cc(N4CCCC4)ncn3)CC2)cc1Cl
719	O=C1C(c2ccncc2)N(CCCc2ccccc2)C(=O)CN1c1ccccc1 (stereo unspecified)
695	FC(F)(F)c1cccc(-c2ccc(CNC3CC3)o2)c1
853	CC(=O)Nc1ccc(OC(=O)c2ccccc2OC(C)=O)cc1
926	COc1ccc(-c2noc(COC(=O)C3=CN(C)S(=O)(=O)N=C3C)n2)cc1
610	CCn1c(=O)sc2cc(S(=O)(=O)N3CCC(C(=O)NCc4cccnc4)CC3)ccc21
653	CCOCCCNC(=O)[C@@H]1[C@H](c2cc(OC)c(OC)c(OC)c2)c2cc3c(cc2[C@H](O)[C@H]1CO)OCO3
814	Cc1nnc2c(=O)n(CC(=O)N3CCC(Cc4ccccc4)CC3)c3cccnc3n12
757	COc1ccc2[nH]cc(CCNC(=O)CC3CCN(C(=O)C4CCCCC4)CC3)c2c1
621	COc1ccccc1CC(=O)N1CCN(c2ncnc3c2CCC3)CC1
656	COC[C@@H]1CN(Cc2cccc(OC)c2OC)C[C@H]1c1ccccn1
833	O=C(C1CCN(c2cnc3nccnc3c2)CC1)N1CCN(c2cccc(Cl)c2)CC1
840	CCC(C)NC(=O)c1cn(-c2cc(-c3nc(C4CC4)no3)ccn2)cn1 (stereo unspecified)
1100	CCc1nc(-c2csc(S(=O)(=O)N3CCCC(C(=O)NC4CCC(C)CC4)C3)c2)no1 (stereo unspecified)
1060	Cc1ccccc1CNC(=O)C1(C)CCCN(C(=O)Nc2cccc(Cl)c2C)C1 (stereo unspecified)
937	Cc1ccc(S(=O)(=O)N2CCCN(c3ccc(=O)n(-c4ccc(F)cc4)n3)CC2)cc1C
1110	Cc1cccc(Oc2nccnc2N2CCC(C(=O)NC3CCCCCC3)CC2)c1
936	CCOC(=O)c1cccc(NC(=O)c2cc(C)nn2-c2ccccc2)c1
801	O=C(Cc1ccc(NC(=O)CSCc2ccccc2)cc1)NCC(F)(F)F
1280	O=S(=O)(c1ccc(-c2noc(-c3cccc(F)c3)n2)cc1)N1CCCCC1
612	CC(=O)Nc1ccc(NC(=O)c2ccc3nc(-c4ccccc4)cn3c2)cc1
